Experiments:
[1] = target: JAK-2 (Homo sapiens, UniProt O60674); test: JAK-2 inhibition assay; type: biochemical
[2] = target: T1, JAK-3 (Homo sapiens, UniProt P52333); test: JAK-3 inhibition assay; type: biochemical
T1 sequence (P52333 1-1124): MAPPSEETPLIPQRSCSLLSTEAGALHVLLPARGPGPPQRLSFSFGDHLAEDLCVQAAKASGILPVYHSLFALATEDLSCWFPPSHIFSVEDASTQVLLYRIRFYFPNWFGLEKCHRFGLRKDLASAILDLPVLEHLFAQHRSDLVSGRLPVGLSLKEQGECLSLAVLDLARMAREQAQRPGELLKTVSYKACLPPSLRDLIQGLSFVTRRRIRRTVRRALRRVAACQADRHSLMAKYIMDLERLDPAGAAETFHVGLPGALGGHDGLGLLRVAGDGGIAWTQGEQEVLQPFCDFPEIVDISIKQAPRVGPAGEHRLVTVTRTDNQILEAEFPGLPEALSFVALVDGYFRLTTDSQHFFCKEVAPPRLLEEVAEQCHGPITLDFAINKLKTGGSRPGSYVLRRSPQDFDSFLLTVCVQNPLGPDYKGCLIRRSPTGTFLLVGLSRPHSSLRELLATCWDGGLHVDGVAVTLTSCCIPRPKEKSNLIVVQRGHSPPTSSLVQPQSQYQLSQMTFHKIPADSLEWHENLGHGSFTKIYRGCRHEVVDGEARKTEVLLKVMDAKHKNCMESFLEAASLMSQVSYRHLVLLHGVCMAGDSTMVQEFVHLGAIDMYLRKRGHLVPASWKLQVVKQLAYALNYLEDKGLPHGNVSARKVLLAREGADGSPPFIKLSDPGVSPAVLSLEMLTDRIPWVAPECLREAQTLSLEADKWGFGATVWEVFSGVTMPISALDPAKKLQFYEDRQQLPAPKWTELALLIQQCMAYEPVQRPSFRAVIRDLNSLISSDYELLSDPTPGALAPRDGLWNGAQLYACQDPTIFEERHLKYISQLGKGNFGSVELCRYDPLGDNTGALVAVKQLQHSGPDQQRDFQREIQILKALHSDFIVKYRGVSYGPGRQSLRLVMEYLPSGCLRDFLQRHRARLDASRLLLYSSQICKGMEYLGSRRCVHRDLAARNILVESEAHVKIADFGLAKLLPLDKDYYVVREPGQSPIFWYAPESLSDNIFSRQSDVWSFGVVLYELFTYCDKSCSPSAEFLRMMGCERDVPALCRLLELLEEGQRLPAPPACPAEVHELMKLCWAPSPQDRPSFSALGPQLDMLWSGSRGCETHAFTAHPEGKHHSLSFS
Description: Compounds were screened for their ability to inhibit JAK using the assay shown below. Reactions were carried out in a kinase buffer containing 100 mM HEPES (pH 7.4), 1 mM DTT, 10 mM MgCl2, 25 mM NaCl, and 0.01% BSA.
Substrate concentrations in the assay were 5 μM ATP (200 μCi/μmole ATP) and 1 μM poly(Glu)4Tyr. Reactions were carried out at 25° C. and 1 nM JAK-3.
To each well of a 96 well polycarbonate plate was added 1.5 μL of a candidate JAK-3 inhibitor along with 50 μL of kinase buffer containing 2 μM poly(Glu)4Tyr and 10 μM ATP. This was then mixed and 50 μL of kinase buffer containing 2 nM JAK-3 enzyme was added to start the reaction. After 20 minutes at room temperature (25° C.), the reaction was stopped with 50 μL of 20% trichloroacetic acid (TCA) that also contained 0.4 mM ATP. The entire contents of each well were then transferred to a 96 well glass fiber filter plate using a TomTek Cell Harvester. After washing, 60 μL of scintillation fluid was added and ^33P incorporation detected on a Perkin Elmer TopCount. After removing the mean background values for all of the data points, the data were fit using Prism software to obtain a Ki value (app).

Sequence of JAK-2 (O60674 whole entry): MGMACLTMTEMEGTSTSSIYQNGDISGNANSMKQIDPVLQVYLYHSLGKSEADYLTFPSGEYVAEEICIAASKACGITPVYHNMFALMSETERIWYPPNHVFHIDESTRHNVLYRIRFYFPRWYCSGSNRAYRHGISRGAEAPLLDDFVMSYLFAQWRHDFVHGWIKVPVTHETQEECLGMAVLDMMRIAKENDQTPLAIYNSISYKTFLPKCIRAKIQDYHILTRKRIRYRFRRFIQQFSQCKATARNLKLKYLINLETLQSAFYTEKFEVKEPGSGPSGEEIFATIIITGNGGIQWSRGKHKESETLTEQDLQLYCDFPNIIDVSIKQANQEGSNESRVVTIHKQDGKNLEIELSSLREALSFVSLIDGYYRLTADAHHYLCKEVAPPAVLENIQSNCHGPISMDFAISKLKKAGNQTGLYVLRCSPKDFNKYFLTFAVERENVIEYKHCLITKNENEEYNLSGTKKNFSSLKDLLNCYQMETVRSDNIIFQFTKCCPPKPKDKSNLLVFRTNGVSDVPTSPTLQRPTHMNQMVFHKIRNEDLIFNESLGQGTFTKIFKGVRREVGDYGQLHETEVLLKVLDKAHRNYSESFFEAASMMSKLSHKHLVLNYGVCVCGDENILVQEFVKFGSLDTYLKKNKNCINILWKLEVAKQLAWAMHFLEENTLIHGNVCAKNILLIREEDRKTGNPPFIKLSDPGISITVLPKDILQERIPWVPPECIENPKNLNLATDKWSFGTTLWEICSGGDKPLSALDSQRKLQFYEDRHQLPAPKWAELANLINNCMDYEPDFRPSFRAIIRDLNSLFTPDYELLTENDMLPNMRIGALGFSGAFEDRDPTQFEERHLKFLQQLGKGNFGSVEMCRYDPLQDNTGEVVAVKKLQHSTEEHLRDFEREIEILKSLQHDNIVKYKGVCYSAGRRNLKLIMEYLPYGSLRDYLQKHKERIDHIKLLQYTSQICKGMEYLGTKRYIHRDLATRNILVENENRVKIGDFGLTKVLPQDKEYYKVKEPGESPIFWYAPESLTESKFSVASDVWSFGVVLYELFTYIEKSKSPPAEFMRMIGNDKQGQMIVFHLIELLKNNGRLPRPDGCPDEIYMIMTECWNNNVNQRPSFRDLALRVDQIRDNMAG

Row | Structure (SMILES) | Ki [1] [µM] | Ki [2] [µM]
1 | Cc1ccc(COc2ccccc2C2Nc3ccccc3-c3ccnc4[nH]cc2c34)cc1 (stereo not shown) [Compound 132] | > 2.5 | > 2.5
2 | COC(=O)c1ccc(C2Nc3ccccc3-c3ccnc4[nH]cc2c34)cc1 (stereo not shown) [Compound 87] | > 2.5 | > 2.5
3 | O=C(OCc1ccccc1)N1CCC(C2Nc3ccccc3-c3ccnc4[nH]cc2c34)CC1 (stereo not shown) [Compound 89] | 0.25 to 2.5 | > 2.5
4 | COc1cc(C2Nc3ccccc3-c3ncnc4[nH]cc2c34)ccc1O (stereo not shown) [Compound 84] | < 0.25 | ≤ 0.25
5 | COc1ccc(C2Nc3ccccc3-c3ccnc4[nH]cc2c34)cc1F (stereo not shown) [Compound 45] | < 0.25 | 0.25 to 2.5
6 | Oc1ncc(C2Nc3ccccc3-c3ccnc4[nH]cc2c34)c(O)n1 (stereo not shown) [Compound 80] | > 2.5 | > 2.5
7 | c1ccc2c(c1)NC(c1ccc(-n3cncn3)cc1)c1c[nH]c3nccc-2c13 (stereo not shown) [Compound 120] | > 2.5 | > 2.5
8 | Brc1ccc(C2Nc3ccccc3-c3ccnc4[nH]cc2c34)cc1 (stereo not shown) [Compound 153] | > 2.5 | > 2.5
9 | FC(F)(F)Oc1ccc(C2Nc3ccccc3-c3ccnc4[nH]cc2c34)cc1 (stereo not shown) [Compound 134] | 0.25 to 2.5 | 0.25 to 2.5
10 | c1ccc2c(c1)NCc1c[nH]c3nccc-2c13 [Compound 13] | 0.25 to 2.5 | 0.25 to 2.5
11 | Fc1cccc(C2Nc3ccccc3-c3ccnc4[nH]cc2c34)c1 (stereo not shown) [Compound 11] | < 0.25 | 0.25 to 2.5
12 | COc1ccc(C2Nc3ccccc3-c3ccnc4[nH]cc2c34)c(Cl)c1O (stereo not shown) [Compound 70] | < 0.25 | 0.25 to 2.5
13 | Oc1ccccc1C1Nc2ccccc2-c2ccnc3[nH]cc1c23 (stereo not shown) [Compound 20] | 0.25 to 2.5 | 0.25 to 2.5
14 | Cc1cc(C2Nc3ccccc3-c3ccnc4[nH]cc2c34)ccc1O (stereo not shown) [Compound 140] | < 0.25 | ≤ 0.25
15 | CCOC(=O)C1(c2ccc(OC)c(F)c2)Nc2ccccc2-c2ccnc3[nH]cc1c23 (stereo not shown) [Compound 130] | < 0.25 | 0.25 to 2.5
16 | COc1ccc(C2Nc3ccccc3-c3ccnc4[nH]cc2c34)cc1 (stereo not shown) [Compound 135] | < 0.25 | ≤ 0.25
17 | FC(F)(F)c1ccc(C2Nc3ccccc3-c3ccnc4[nH]cc2c34)cc1 (stereo not shown) [Compound 136] | > 2.5 | > 2.5
18 | CN(C(=O)Oc1ccc(C2Nc3ccccc3-c3ccnc4[nH]cc2c34)cc1F)c1ccccc1 (stereo not shown) [Compound 162] | 0.25 to 2.5 | 0.25 to 2.5
19 | COc1ccc(C2NC(=O)c3ccccc3-c3ccnc4[nH]cc2c34)cc1C (stereo not shown) [Compound 129] | > 2.5 | > 2.5

Row | Structure (SMILES) | Ki [1] [µM] | Ki [2] [µM]
20 | Fc1ccc(C2Nc3ccccc3-c3ccnc4[nH]cc2c34)c(F)c1 (stereo not shown) [Compound 26] | < 0.25 | 0.25 to 2.5
21 | Cc1cc(C2Nc3ccccc3-c3ccnc4[nH]cc2c34)ccc1F (stereo not shown) [Compound 138] | > 2.5 | > 2.5
22 | Oc1ccc([C@H]2Nc3ccccc3-c3ccnc4[nH]cc2c34)c(Cl)c1 [Compound 62] | < 0.25 | ≤ 0.25
23 | CC1=Nc2ccccc2-c2ccnc3[nH]cc1c23 [Compound 51] | 0.25 to 2.5 | 0.25 to 2.5
24 | O=[N+]([O-])c1ccc(C2Nc3ccccc3-c3ccnc4[nH]cc2c34)cc1 (stereo not shown) [Compound 86] | > 2.5 | > 2.5
25 | N#CCC1Nc2ccccc2-c2ccnc3[nH]cc1c23 (stereo not shown) [Compound 155] | < 0.25 | ≤ 0.25
26 | CCOC(=O)C1Nc2ccccc2-c2ccnc3[nH]cc1c23 (stereo not shown) [Compound 8] | 0.25 to 2.5 | 0.25 to 2.5
27 | Fc1ccc(F)c(C2Nc3ccccc3-c3ccnc4[nH]cc2c34)c1 (stereo not shown) [Compound 27] | < 0.25 | ≤ 0.25
28 | COC(=O)Nc1ccc(C2c3c[nH]c4nccc(c34)-c3ccccc3N2C(=O)OC)cc1 (stereo not shown) [Compound 100] | > 2.5 | 0.25 to 2.5
29 | COc1ccc(C2NC(=O)c3ccccc3-c3ccnc4[nH]cc2c34)cc1 (stereo not shown) [Compound 126] | > 2.5 | > 2.5
30 | CC(C)Oc1ccc(C2Nc3ccccc3-c3ccnc4[nH]cc2c34)cc1 (stereo not shown) [Compound 145] | < 0.25 | 0.25 to 2.5
31 | Clc1ccccc1COc1cccc(C2Nc3ccccc3-c3ccnc4[nH]cc2c34)c1 (stereo not shown) [Compound 131] | < 0.25 | 0.25 to 2.5
32 | Nc1ccc(C2Nc3ccccc3-c3ccnc4[nH]cc2c34)cc1 (stereo not shown) [Compound 93] | < 0.25 | ≤ 0.25
33 | Oc1c(Cl)cc(C2Nc3ccccc3-c3ccnc4[nH]cc2c34)cc1Cl (stereo not shown) [Compound 67] | < 0.25 | ≤ 0.25
34 | Fc1ncccc1C1Nc2ccccc2-c2ccnc3[nH]cc1c23 (stereo not shown) [Compound 36] | 0.25 to 2.5 | 0.25 to 2.5
35 | O=C1NC(c2ccc(O)cc2F)c2c[nH]c3nccc(c23)-c2ccccc21 (stereo not shown) [Compound 127] | < 0.25 | 0.25 to 2.5
36 | Oc1ccc(C2Nc3ccccc3-c3ncnc4[nH]cc2c34)cc1Cl (stereo not shown) [Compound 81] | < 0.25 | ≤ 0.25
37 | OCCCC1Nc2ccccc2-c2ccnc3[nH]cc1c23 (stereo not shown) [Compound 60] | 0.25 to 2.5 | > 2.5
38 | c1ccc(Oc2ccc(C3Nc4ccccc4-c4ccnc5[nH]cc3c45)cc2)cc1 (stereo not shown) [Compound 147] | > 2.5 | > 2.5

Row | Structure (SMILES) | Ki [1] [µM] | Ki [2] [µM]
39 | CCN(CC)CCOc1ccc(C2Nc3ccccc3-c3ccnc4[nH]cc2c34)cc1 (stereo not shown) [Compound 157] | < 0.25 | ≤ 0.25
40 | Fc1ccc(F)c(C2Nc3ccccc3-c3c(Cl)cnc4[nH]cc2c34)c1F (stereo not shown) [Compound 54] | < 0.25 | 0.25 to 2.5
41 | Fc1ccc(C2Nc3ccccc3-c3ccnc4[nH]cc2c34)c(Cl)c1 (stereo not shown) [Compound 32] | 0.25 to 2.5 | > 2.5
42 | CN1C(=O)C(c2ccc(O)cc2)c2c[nH]c3ncnc(c23)-c2ccccc21 (stereo not shown) [Compound 159] | < 0.25 | ≤ 0.25
43 | Fc1cccc(C(F)(F)F)c1C1Nc2ccccc2-c2ccnc3[nH]cc1c23 (stereo not shown) [Compound 34] | 0.25 to 2.5 | 0.25 to 2.5
44 | COC(=O)c1cc(C2Nc3ccccc3-c3ccnc4[nH]cc2c34)ccc1O (stereo not shown) [Compound 111] | > 2.5 | > 2.5
45 | Fc1cccc(F)c1C1Nc2ccccc2-c2c(Cl)cnc3[nH]cc1c23 (stereo not shown) [Compound 52] | 0.25 to 2.5 | 0.25 to 2.5
46 | O=C1Nc2ccccc2-c2ncnc3[nH]cc(c23)C1c1ccc(O)c(F)c1 (stereo not shown) [Compound 160] | < 0.25 | ≤ 0.25
47 | Fc1cc(F)cc(C2Nc3ccccc3-c3ccnc4[nH]cc2c34)c1 (stereo not shown) [Compound 28] | 0.25 to 2.5 | 0.25 to 2.5
48 | COc1cc(C2Nc3ccccc3-c3ccnc4[nH]cc2c34)cc(O)c1O (stereo not shown) [Compound 64] | < 0.25 | ≤ 0.25
49 | COc1ccccc1C1Nc2ccccc2-c2ccnc3[nH]cc1c23 (stereo not shown) [Compound 9] | 0.25 to 2.5 | 0.25 to 2.5
50 | Oc1ccc(C2=Nc3ccccc3-c3ccnc4[nH]cc2c34)c(Cl)c1 [Compound 63] | < 0.25 | ≤ 0.25
51 | O=C1NC(c2ccc(Br)cc2)c2c[nH]c3nccc(c23)-c2ccccc21 (stereo not shown) [Compound 152] | > 2.5 | > 2.5
52 | Oc1c(Br)cc(C2Nc3ccccc3-c3ccnc4[nH]cc2c34)cc1Br (stereo not shown) [Compound 78] | 0.25 to 2.5 | 0.25 to 2.5
53 | Fc1cccc(C2Nc3ncccc3-c3ccnc4[nH]cc2c34)c1 (stereo not shown) [Compound 48] | 0.25 to 2.5 | 0.25 to 2.5
54 | c1ccc2c(c1)NC(c1ccncc1)c1c[nH]c3nccc-2c13 (stereo not shown) [Compound 43] | 0.25 to 2.5 | > 2.5
55 | Oc1c(F)cc(C2Nc3ccccc3-c3ncnc4[nH]cc2c34)cc1F (stereo not shown) [Compound 115] | < 0.25 | ≤ 0.25
56 | c1ccc2c(c1)NC(C1CCNCC1)c1c[nH]c3nccc-2c13 (stereo not shown) [Compound 90] | 0.25 to 2.5 | 0.25 to 2.5

Reference: US8163732B2, “Tricyclic heteroaryl compounds useful as inhibitors of Janus kinase” (Vertex Pharmaceuticals Incorporated, priority 2005, dated 2012)
